Experimental data reported in patent publication US8889714B2, “3,4-substituted piperidine derivatives as renin inhibitors” (Actelion Pharmaceuticals Ltd., priority 2008, dated 2014).
Where two headings read alike, the source gives them in different places.

What was measured:
[1] = test system: female double transgenic rats (transgenic for human renin and angiotensin); test: Telemetry of mean arterial blood pressure after oral vs transdermal delivery in double transgenic rats; type: in vivo, rat; details: for ABC36h: area between curves of MAP
Method: Female double transgenic rats (rats transgenic for human renin and […] (see, e.g., Bohlender et al., J Am Soc Nephrol 11:2056 (2000)) were developed. All animals were maintained under identical conditions and had free access to normal pelleted rat chow and water. Rats were initially treated with enalapril (1 mg/kg/day), starting 3 weeks after birth and during 9 weeks. Telemetry transmitters are implanted within 2 to 4 weeks after cessation of enalapril treatment. After approximately two weeks following cessation of enalapril treatment, the double transgenic rats are hypertensive with mean arterial blood pressures in the range of 160-170 mmHg.
Transmitter implantation—The rats were anesthetized using isoflurane (via inhalation, 2-3%) The pressure transmitter was implanted under aseptic conditions into the peritoneal cavity with the sensing catheter placed in the descending aorta below the renal arteries pointing upstream. The transmitter was sutured to the abdominal musculature, the skin closed, and the rats were individually housed in a cage, placed on a telemetry receiver pad to enable collection of the blood pressure data during recovery from anesthesia and thereafter. The rats were single-caged for the duration of the recording of telemetry data.
Telemetry System—Telemetry units were obtained from Data Sciences International (DSI, St. Paul, Minn.). […] The tip of the catheter was filled with a viscous gel that prevents blood reflux. The implants (length=2.5 cm, diameter=1.2 cm) weighed 9 g and have a typical battery life of 6 months. A receiver platform (RPC-1, DSI) connected the radio signal to digitized input that was sent to a dedicated personal computer. Arterial pressures were calibrated by using an input from an ambient-pressure reference (APR-1, DSI). Systolic, mean and diastolic blood pressure was expressed in millimeter of mercury (mmHg).
Telemetry data analysis—Signals received by the receivers were digitized for 10 seconds every 5 minutes, at 500 Hz. From this signal, mean arterial pressure (MAP), systolic and diastolic blood pressure (SBP and DPB), pulse pressure (PP), heart rate (HR) and activity (ACT) were derived. A one-hour moving average of the data was then performed by the DSI analysis software. Data were then exported to an Excel template for the calculation of group statistics, areas between curves (ABC), maximal effect and duration of MAP reduction.
Drug administration—For oral delivery, double transgenic rats with implanted pressure transmitters were dosed by oral gavage with a single bolus of vehicle (0.5% methocel; 5 ml/kg) or of the test substance (30 mg/5 ml/kg) (n=5 per group). After dosing, the rat was returned to his cage. Blood pressure data were collected up to 5 days after oral dosing.
(§1) For transdermal delivery, double transgenic rats with implanted pressure transmitters were dosed with a single application on the shaved skin of the rat of vehicle (250 μl of 100% DMSO; n=4) or of the test compound (10 mg in 250 μl of 100% DMSO, i.e. 33 mg/kg; n=5). The rat was lightly sedated under 2.5% isoflurane anesthesia, and its back was shaved over a 4 cm^2 area. The animal was returned to his cage to recover from anesthesia. Twenty-four hours later, the rat was lightly sedated under 2.5% isoflurane anesthesia, and the shaved area disinfected with 3 passes of ethanol.
After evaporation of the ethanol, a volume of 250 μl of 100% DMSO only, or of the compound dissolved in a 100% DMSO solution was applied over the shaved area using a micropipette. After complete evaporation of the DMSO solution (within 5 min after application), an occlusive transparent, waterproof film (OpSite) was taped to the back of the animal over the shaved area, and a jacket was fitted on the animal. Isoflurane inhalation was stopped, and the animal individually caged for telemetry data collection. Blood pressure data were collected up to 5 days after application of the compound/DMSO solution.

[2] = biological target: T1, Plasma renin activity (PRA) (Homo sapiens, UniProt P00797); test: Plasma renin activity (PRA) inhibition in dTG rats after TD delivery; type: in vivo, rat; details: TD 10 mg in DMSO (33 mg/kg); PRA at T4h vs T0h
T1 construct: from tissue; host or cells: plasma of female double transgenic rats (human renin and angiotensinogen transgenes)
T1 sequence (P00797 67-406): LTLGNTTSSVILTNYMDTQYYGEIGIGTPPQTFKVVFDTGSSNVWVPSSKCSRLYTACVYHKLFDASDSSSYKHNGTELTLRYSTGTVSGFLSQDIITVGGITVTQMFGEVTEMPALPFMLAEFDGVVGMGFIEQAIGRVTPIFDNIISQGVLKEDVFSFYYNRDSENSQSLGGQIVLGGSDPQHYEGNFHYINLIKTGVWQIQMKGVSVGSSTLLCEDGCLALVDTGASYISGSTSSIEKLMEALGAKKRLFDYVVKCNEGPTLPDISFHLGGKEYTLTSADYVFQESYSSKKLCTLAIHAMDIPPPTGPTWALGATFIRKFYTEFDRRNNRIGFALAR
Method: as §1
A blood sample (0.3 ml) was taken by tail bleed or jugular iv in the telemetrized dTGs, at T0h, T4h and T24h after TD delivery to determine test substance levels and bioavailability (estimated as area under the curve, or AUC) of the active substance in systemic circulation. Plasma renin activity (PRA) was also measured at T0h and T4h. The effect of the test substance on PRA is expressed as the percentage of inhibition of PRA at T4h vs T0h.

[3] = Test substance levels / bioavailability (AUC) in systemic circulation of telemetrized dTG rats; type: in vivo; details: double transgenic (dTG), rat, T24h, read-out: AUC24h
Human recombinant renin = biological target: T2, Human recombinant renin (Homo sapiens, UniProt P00797); test: Inhibition of human recombinant renin (buffer); type: biochemical; details: 100 pM renin, 50 mM MOPS pH 7.4, 37° C., 3 hours; read-out: Human Renin IC50 (buffer)
T2 construct: purchased Proteos
T2 sequence (P00797 67-406): T1 sequence (P00797 67-406)
Method: Fluorescence is measured at times 0 and 3 hours with a SpectraMax Gemini EM reader set at an excitation wavelength of 328 nm and at an emission wavelength of 388 nm. Background fluorescence at t=0 is subtracted from the measurement at t=3 hours. Inhibitory activity of the compounds is expressed as IC50.

[4] = biological target: T3, recombinant renin in human plasma (Homo sapiens, UniProt P00797); test: Inhibition of renin in human plasma; type: biochemical; details: human EDTA plasma, 1 nM recombinant renin added, 37° C., 1 hour; read-out: Human Renin IC50 (plasma)
T3 construct: purchased Proteos
T3 sequence (P00797 67-406): T1 sequence (P00797 67-406)
Method: Human EDTA-collected plasma is rapidly thawed in warm water and centrifuged at 2900 g for 15 minutes at 4° C. The supernatant is collected and recombinant renin (Proteos) is added at a final concentration of 1 nM. […] The plate is incubated at 37° C. for 1 hour. […] Background fluorescence at t=0 is subtracted from the measurement at t=1 hour. Inhibitory activity of the compounds is expressed as IC50.

[5] = PO, single oral gavage 30 mg/5 ml/kg in 0.5% methocel
[6] = TD, single application 10 mg in 250 μl 100% DMSO (33 mg/kg) on shaved skin

| SMILES | duration of MAP reduction [1, 5] [days] | max MAP decrease [1, 5] [mmHg] | ABC36h [1, 5] [mmHg * h] | duration of MAP reduction [1, 6] [days] | max MAP decrease [1, 6] [mmHg] | ABC36h [1, 6] [mmHg * h] | PRA inhibition at 4 h [2] [%] | AUC(0-t) ([3]; topical, TD 10 mg in DMSO (33 mg/kg), blood samples at T0h, T4h) [µM·h] | AUC(0-t) ([3]; PO 30 mg/kg, blood samples at T0, T6h) [µM·h] | IC50 (Human recombinant renin) [nM] | IC50 [4] [nM] |
| --- | --- | --- | --- | --- | --- | --- | --- | --- | --- | --- | --- |
| COCCCc1cc(CN(C(=O)[C@H]2CNCC[C@@H]2c2ccn(C)c(=O)c2)C2CC2)cc(Br)c1C (relative stereo) [test substance, trans-N-({3-Bromo-4-methyl-5-[3-(methyloxy)propyl]phenyl}methyl)-N-cyclopropyl-4-(1-methyl-2-oxo-1,2-dihydro-4-pyridinyl)-3-piperidinecarboxamide] | 2 | 57 | 1143 | 1 | 30 | 514 | 98 | 2.9 | 1.8 | – | – |
| COCCCc1ccc(SC)c(CN(C(=O)[C@H]2CNCC[C@@H]2c2ccn(C)c(=O)c2)C2CC2)c1 (relative stereo) [Example 84, trans-N-Cyclopropyl-4-(1-methyl-2-oxo-1,2-dihydro-4-pyridinyl)-N-{[5-[3-(methyloxy)propyl]-2-(methylthio)phenyl]methyl}-3-piperidinecarboxamide] | – | – | – | – | – | – | – | – | – | 4.7 | 12.3 |
